Laboratory results: patent US9962395B2, “Compositions and methods for maintaining cognitive function” (The Regents of the University of California, priority 2014, dated 2018)
“Also recorded” adds a separate entry of the source.

Key:
Format in all cases: in vivo
[1] = system: hippocampal CA1 of ovariectomized (OVX) mice; assay: Hippocampal slice electrophysiology: long term potentiation (LTP) in CA1 after high-frequency stimulation
Method: FIGS. 1A and 1B. Estriol partially recovers long term potentiation (LTP) in the hippocampal CA1 of ovariectomized (OVX) mice. (A) LTP induced by 2×100 Hz HFS in sham-placebo treated mice (open squares, n=4) is reduced in OVX-placebo treated mice (gray circles, n=4). Estriol-treated OVX mice show improved synaptic strength (black circles, n=4). Representative traces are superimposed average fEPSPs recorded at baseline and during final 15 minutes after HFS. Estriol (5 mg) or placebo was administered as subcutaneous pellets. Calibration: 2 mV, 5 ms. (B) Summary showing fEPSP slopes during baseline (Pre) and in final 15 minutes after HFS (Post). […] Statistics RM-ANOVA, Tukey's multiple comparison test, ****p≤0.0001.
Electrophysiology to assess excitatory synaptic transmission is an accepted biomarker for cognitive function in mice, which specifically tests long term potentiation (LTP) during stimulation of the region of the brain responsible for memory, the CA1 region of the hippocampus. Hippocampal electrophysiology was examined in slices from sham surgical mice treated with placebo (SP), ovariectomized mice treated with placebo (OP), and ovariectomized mice treated with estriol (OE). […] LTP was reduced in OP mice as compared to SP mice, consistent with the known deleterious effects upon loss of peripheral estrogen on neurotransmission (FIG. 1).

[2] = system: post-menopausal female patients; assay: Randomized, double-blind, placebo-controlled human clinical trial of estriol and norethindrone in menopause; details: oral estriol 2, 4, 6 or 8 mg/day, 36-month treatment, women
Method: This example describes a randomized, double-blind, placebo-controlled human clinical trial for the treatment of menopause estriol and norethindrone.
Women who are taking hormone replacement therapy are excluded from the trial.
Patients are randomized to oral estriol (2 mg/day, 4 mg/day, 6 mg/day, or 8 mg/day) or to placebo for a 36-month treatment duration. Gynecologists examine the patients before, during, and after the study. Each patient is examined at three- to six-month intervals during the trial. Patients also undergo mammograms before and after the study. In addition, at baseline, 3 months, 6 months, 12 months, 18 months, 24, months, 30 months, and 36 months, the investigators measure participants' estriol levels, and assess cognitive abilities.
A total of 100 patients receive estriol, and 100 patients receive placebo. Baseline characteristics are similar in both patient groups. Participants' mean age at entry is approximately 52 years. […] To ensure breast and uterus safety, every three months the patients take norethindrone 0.7 mg once a day for 14 days.

NSE-Cre:ERβ^fl/fl mice = assay: Morris water maze in mice with neuronal conditional knockout of ER beta; details: OVX estriol-treated NSE-Cre:ERβ^fl/fl mice, n=7
Method: (§1) FIG. 5. Peripheral estrogens improve performance on the Morris water maze via ERP expressed on neurons. Healthy female C57BL/6 were tested for cognitive performance (spatial memory) using the Morris water maze, whereby mice learn to spend more time in a target quadrant (TQ) as compared to three other quadrants (OQ). […] (Bottom graph) To determine (a) whether ER beta is required for proper learning and, more specifically, (b) whether ER beta expression in neurons is required for learning, mice were generated that had ER beta conditionally knocked out using CreLox technology, with Cre driving the knock out in neurons via the neuron-specific enolase (NSE) promoter. […] (***p≤0.001, ANOVA-Sidak's posttest). […] The dashed line on the graphs indicates the time expected to be spent in a quadrant by random chance in the absence of learning (25%).
Thus, estrogen receptor β ligands can likely protect against neuronal defects and disability during neurodegenerative processes. This is consistent with the observation that estriol improved performance since it is a known that estriol is an agonist for various estrogen receptors including estrogen receptor β.

[3] = system: ovariectomized female C57BL/6 mice; assay: Morris water maze (spatial memory) in ovariectomized mice
Method: as §1
Ovariectomized mice (OVX-Placebo) display worse performance in the Morris water maze than control mice (Sham-Placebo) (FIG. 5, top panel). The administration of an estriol improves performance in ovariectomized mice (OVX-Estriol) (FIG. 5, top panel).

PSD-95 = PSD-95 synaptic protein expression in dorsal hippocampus (western blot, immunofluorescence); details: OVX mice treated with estriol, n=2
Text: FIG. 4 consists of two panels, labeled panels (A) and (B). Estriol partially recovers synaptic levels of PSD-95 in the dorsal hippocampus following OVX. Panel A: levels of PSD-95 are decreased in the dorsal hippocampus in OVX-Placebo mice (n=2) compared to Sham-Placebo mice (n=2). […] Scale bar=20 μm, 40× objective.
Expression of PSD-95 in the CA1 stratum radiatum was shown by both immunofluorescence and by western blot (FIG. 4)

C[C@]12CC[C@@H]3c4ccc(O)cc4CC[C@H]3[C@@H]1C[C@@H](O)[C@@H]2O [estriol]
LTP versus OVX-placebo mice (in words) ([1]; OVX mice treated with estriol for 9 weeks, RM-ANOVA, Tukey, p≤0.0001): significantly improved over OP mice; also recorded: significant improvement in LTP deficit from ovariectomy
fEPSP slope in final 15 minutes after HFS (Post), Mean±SE post-HFS ([1]; OVX mice, estriol 5 mg subcutaneous pellet, 2×100 Hz HFS, n=4, sham-placebo 159.6±0.2, OVX-placebo 141.6±0.5): 150.4±0.4
Estriol levels in serum [2]: in early pregnancy range
% duration in TQ versus OQ, estriol rescue of learning in ER beta neuronal knockout (NSE-Cre:ERβ^fl/fl mice): estrogen-mediated improvement is lost; also recorded: the ability of estriol to rescue learning is mediated by ER beta expression in neurons
% duration in target quadrant (TQ) versus other quadrants (OQ), learning ([3]; OVX mice, 20 days of 5 mg, 90 day release estriol implants, n=7, p≤0.01): significant preference for the TQ over OQ; also recorded: ability to learn may be restored
average latency to platform during acquisition training ([3]; Sham-Placebo vs OVX-Placebo vs OVX-Estriol, 3 trials/mouse/day, RM-ANOVA p>0.05): no difference was observed
PSD-95 levels in dorsal hippocampus / CA1 stratum radiatum versus OVX-placebo (PSD-95): increased expression of PSD-95; also recorded: elevated PSD-95 levels
